# Read-outs that look alike come from different tables or passages of the source.
# Columns and labels:
# USA300 LAC = test: IC50 of inhibition of staphyloxanthin synthesis in drug-resistant strain; assay type: cell-based; conditions: Staphylococcus aureus
# Protocol: (§1) Selection of compound concentrations: based on the preliminary screening results, the ability of each compound to inhibit staphyloxanthin synthesis was determined. […] According to the assay results, 10 different concentration gradients were designed for each compound, such that the ability to inhibit staphyloxanthin synthesis comprised substantially from 0% to 100%.
# (§2) Culture of the strains: single colonies of strain Newman and crtN mutant strain were picked from TSA plates, added into test tubes containing 4 mL of sterile TSB medium, and cultured at 37° C. and 250 rpm for 12 h for later use.
# (§3) The relative level of staphyloxanthin synthesis at each concentration of the compound of the invention=A450 (sample)/A450 (negative control)*100%. With the molar concentration of the compound as the abscissa and the relative level of staphyloxanthin synthesis as the ordinate, a curve fitting of inhibitor concentration-inhibition rate (log(inhibitor) vs response) was performed in Graphpad prism 5.0 software, and the IC50 of the compound for inhibiting staphyloxanthin synthesis was calculated by software based on the fitting results.
# (§4) In addition to replacement of S. aureus strain Newman with USA 400 MW 2, USA 300 LAC and Mu 50, the rest of the method is the same as in Examples 58-59.
# (§5) Compound IA-25 was used as a representative compound. In addition to replacement of S aureus strain Newman with other MRSA strains as described in Table 3, the rest of the method is the same as in Examples 61-62.
# USA400 MW2 = test: as above; assay type: cell-based; conditions: Staphylococcus aureus
# Protocol: as §1, §2, §3, §4, §5
# Mu50 = test: as above; assay type: cell-based; conditions: Staphylococcus aureus
# Protocol: as §1, §2, §3, §4, §5
# Microsporum gypseum = test: In vitro antifungal assay (micro liquid-based dilution); assay type: cell-based; conditions: Nannizzia gypsea, read-out: Antifungal Activities, MIC80
# CYP enzyme subtype 2D6 = CYP enzyme subtype 2D6 (Homo sapiens, UniProt P10635); test: Inhibition assay on hepatic CYP450 enzyme; assay type: in vitro ADME; conditions: CYP 2D6; read-out: Half inhibitory concentration (IC50)
# CYP enzyme subtype 3A4T = CYP enzyme subtype 3A4T (Homo sapiens, UniProt P08684); test: Inhibition assay on hepatic CYP450 enzyme; assay type: in vitro ADME; conditions: CYP 3A4T; read-out: Half inhibitory concentration (IC50)
# [1] = system: wild-type S. aureus Newman strain; test: Verification assay using CrtN as a target (HPLC of carotenoid extract); assay type: cell-based, Staphylococcus aureus; conditions: 100 μM added to wild-type strain Newman, 440 nm
# Tinea barbae = test: In vitro antifungal assay (micro liquid-based dilution); assay type: cell-based; conditions: read-out: Antifungal Activities, MIC80
# CYP enzyme subtype 2C8 = CYP enzyme subtype 2C8 (Homo sapiens, UniProt P10632); test: Inhibition assay on hepatic CYP450 enzyme
# CrtN = CrtN (Staphylococcus aureus, UniProt O07855); test: biochemical
# Protocol: (1) Preparation of Diapophytoene Emulsion as Substrate […]
# After completion of the reaction, the reaction was terminated by adding 500 μL of methanol, and the reaction solution was transferred to a 15 mL centrifuge tube; the reaction solution was added with 700 μL of chloroform, and vortexed thoroughly to extract the reacted staphyloxanthin, and then centrifuged at 7000 rpm for 3 min, and the chloroform layer was carefully pipetted; the remaining reaction solution was extracted by further adding 500 μL of chloroform thereto, and the extracts were combined and concentrated to dryness under vacuum; the concentrated product was dissolved by adding 200 μL of chloroform, and pipetted into a 96-well microplate, and then the absorbance was measured at 450 nm for quantification of the CrtN product diaponeurosporene.
# LRSA56 (CHN) = test: IC50 of inhibition of staphyloxanthin synthesis in MRSA strain; assay type: cell-based; conditions: Staphylococcus aureus, read-out: Inhibitory activity on staphyloxanthin IC50
# Protocol: as §1, §2, §3, §5
# XN108 (CHN) = test: as above; assay type: cell-based; conditions: Staphylococcus aureus, read-out: Inhibitory activity on staphyloxanthin IC50
# Protocol: as §1, §2, §3, §5
# LRSA205 (CHN) = test: as above; assay type: cell-based; conditions: Staphylococcus aureus, read-out: Inhibitory activity on staphyloxanthin IC50
# Protocol: as §1, §2, §3, §5
# NRS100 (USA) = test: as above; assay type: cell-based; conditions: Staphylococcus aureus, NRS100, read-out: Inhibitory activity on staphyloxanthin IC50
# Protocol: as §1, §2, §3, §5
# LRSA202 (CHN) = test: as above; assay type: cell-based; conditions: Staphylococcus aureus, read-out: Inhibitory activity on staphyloxanthin IC50
# Protocol: as §1, §2, §3, §5
# NRS70 (JPN) = test: as above; assay type: cell-based; conditions: Staphylococcus aureus, NRS70, read-out: Inhibitory activity on staphyloxanthin IC50
# Protocol: as §1, §2, §3, §5
# HS663 (CHN) = test: as above; assay type: cell-based; conditions: Staphylococcus aureus, read-out: Inhibitory activity on staphyloxanthin IC50
# Protocol: as §1, §2, §3, §5
# NF65Y (CHN) = test: as above; assay type: cell-based; conditions: Staphylococcus aureus, read-out: Inhibitory activity on staphyloxanthin IC50
# Protocol: as §1, §2, §3, §5
# NRS108 (FRA) = test: as above; assay type: cell-based; conditions: Staphylococcus aureus, NRS108, read-out: Inhibitory activity on staphyloxanthin IC50
# Protocol: as §1, §2, §3, §5
# NRS271 (SPA) = test: as above; assay type: cell-based; conditions: Staphylococcus aureus, NRS271, read-out: Inhibitory activity on staphyloxanthin IC50
# Protocol: as §1, §2, §3, §5
# CYP enzyme subtype 1A2 = CYP enzyme subtype 1A2 (Homo sapiens, UniProt P05177); test: Inhibition assay on hepatic CYP450 enzyme; assay type: in vitro ADME; conditions: CYP 1A2; read-out: Half inhibitory concentration (IC50)
# S. aureus = test: Hydrogen peroxide killing assay; assay type: cell-based, Staphylococcus aureus; conditions: four strains, 1.5% hydrogen peroxide, 1 h
# From the text: Compound IA-25 was used as a representative compound. The main object of the invention was to impair the ability of bacteria to resist immunological killing in vivo by inhibiting staphyloxanthins synthesis.
# The calculated survival rate of bacteria after hydrogen peroxide killing=(count of bacteria grown in sample after hydrogen peroxide killing×dilution factor)/(count of bacteria grown in control group×dilution factor)×100%.
# Chain of CYP enzyme subtype 2D6 (P10635 whole entry): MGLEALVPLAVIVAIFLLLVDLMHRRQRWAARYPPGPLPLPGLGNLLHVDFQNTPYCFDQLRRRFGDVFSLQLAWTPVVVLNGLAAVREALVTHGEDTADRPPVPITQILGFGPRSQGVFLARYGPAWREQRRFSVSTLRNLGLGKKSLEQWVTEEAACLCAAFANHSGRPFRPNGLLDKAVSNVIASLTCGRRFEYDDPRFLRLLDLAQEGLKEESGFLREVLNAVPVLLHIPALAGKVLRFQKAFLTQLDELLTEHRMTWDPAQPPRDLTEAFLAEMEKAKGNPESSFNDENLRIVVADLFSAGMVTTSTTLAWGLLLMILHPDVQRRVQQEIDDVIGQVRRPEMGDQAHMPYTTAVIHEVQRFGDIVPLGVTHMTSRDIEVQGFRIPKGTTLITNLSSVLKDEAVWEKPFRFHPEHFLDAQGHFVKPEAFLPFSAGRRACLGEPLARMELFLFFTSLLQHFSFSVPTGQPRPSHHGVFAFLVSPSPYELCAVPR
# Chain of CYP enzyme subtype 3A4T (P08684 whole entry): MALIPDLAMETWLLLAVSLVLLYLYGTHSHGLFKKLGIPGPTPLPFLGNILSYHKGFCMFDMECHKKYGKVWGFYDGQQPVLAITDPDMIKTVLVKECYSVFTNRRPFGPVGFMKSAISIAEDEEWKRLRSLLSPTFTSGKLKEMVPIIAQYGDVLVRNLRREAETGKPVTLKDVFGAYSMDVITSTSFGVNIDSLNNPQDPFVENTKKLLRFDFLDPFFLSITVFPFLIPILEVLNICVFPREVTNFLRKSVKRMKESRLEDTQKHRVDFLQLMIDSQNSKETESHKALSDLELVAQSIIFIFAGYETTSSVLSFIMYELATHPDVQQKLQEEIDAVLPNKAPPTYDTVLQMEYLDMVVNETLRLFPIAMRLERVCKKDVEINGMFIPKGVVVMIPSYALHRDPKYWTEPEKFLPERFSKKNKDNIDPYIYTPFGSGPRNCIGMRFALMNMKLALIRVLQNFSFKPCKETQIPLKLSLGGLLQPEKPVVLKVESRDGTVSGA
# Chain of CrtN (O07855 whole entry): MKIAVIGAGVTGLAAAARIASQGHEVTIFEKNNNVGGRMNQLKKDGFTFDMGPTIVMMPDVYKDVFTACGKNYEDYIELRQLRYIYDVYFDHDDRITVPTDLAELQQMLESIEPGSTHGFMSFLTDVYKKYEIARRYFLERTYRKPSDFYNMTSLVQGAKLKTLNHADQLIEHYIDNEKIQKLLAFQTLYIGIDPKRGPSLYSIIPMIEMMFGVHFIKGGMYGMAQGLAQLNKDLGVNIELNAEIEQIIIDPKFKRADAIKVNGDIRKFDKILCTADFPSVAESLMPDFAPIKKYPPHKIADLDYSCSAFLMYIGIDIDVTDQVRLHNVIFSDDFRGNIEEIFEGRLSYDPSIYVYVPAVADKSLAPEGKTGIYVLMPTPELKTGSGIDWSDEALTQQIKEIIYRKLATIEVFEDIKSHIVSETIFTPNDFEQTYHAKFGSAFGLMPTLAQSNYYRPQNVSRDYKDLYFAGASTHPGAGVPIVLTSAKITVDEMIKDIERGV
# Chain of CYP enzyme subtype 2C8 (P10632 whole entry): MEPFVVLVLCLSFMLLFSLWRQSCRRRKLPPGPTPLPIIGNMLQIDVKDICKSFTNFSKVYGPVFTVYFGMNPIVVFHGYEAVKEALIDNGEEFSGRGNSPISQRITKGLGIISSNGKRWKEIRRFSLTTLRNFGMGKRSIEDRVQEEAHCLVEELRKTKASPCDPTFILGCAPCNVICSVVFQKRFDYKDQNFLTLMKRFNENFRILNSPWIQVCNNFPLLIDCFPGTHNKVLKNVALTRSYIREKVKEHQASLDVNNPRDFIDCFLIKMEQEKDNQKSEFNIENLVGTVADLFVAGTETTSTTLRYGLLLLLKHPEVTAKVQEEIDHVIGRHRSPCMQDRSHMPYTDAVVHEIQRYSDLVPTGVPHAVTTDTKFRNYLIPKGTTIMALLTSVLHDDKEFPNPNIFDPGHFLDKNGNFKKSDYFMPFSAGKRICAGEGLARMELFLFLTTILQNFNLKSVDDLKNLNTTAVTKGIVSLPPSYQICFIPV
# Chain of CYP enzyme subtype 1A2 (P05177 whole entry): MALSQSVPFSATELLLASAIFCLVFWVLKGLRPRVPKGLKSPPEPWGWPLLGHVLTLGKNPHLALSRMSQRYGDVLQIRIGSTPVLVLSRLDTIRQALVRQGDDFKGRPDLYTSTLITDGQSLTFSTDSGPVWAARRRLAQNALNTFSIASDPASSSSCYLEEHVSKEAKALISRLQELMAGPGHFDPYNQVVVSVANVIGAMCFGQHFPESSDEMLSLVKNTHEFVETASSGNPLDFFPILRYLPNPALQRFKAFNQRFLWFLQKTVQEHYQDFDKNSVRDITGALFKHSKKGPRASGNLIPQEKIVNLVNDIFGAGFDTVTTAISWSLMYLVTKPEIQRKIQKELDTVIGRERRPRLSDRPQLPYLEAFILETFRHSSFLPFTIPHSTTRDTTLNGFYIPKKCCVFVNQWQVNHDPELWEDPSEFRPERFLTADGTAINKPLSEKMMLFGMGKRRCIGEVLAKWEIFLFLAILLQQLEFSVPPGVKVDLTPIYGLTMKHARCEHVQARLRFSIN
smiles,measurement,setting,value
"CN(C/C=C/c1ccc(-c2ccccc2)cc1)Cc1coc2ccccc12 [Compound IA-25, (E)-N-methyl-N-[(benzofuran-3-yl)methylene]-3-(4-phenylphenyl)-prop-2-en-1-amine]",IC50,"USA300 LAC; USA300, read-out: IC50, staphyloxanthin synthesis in drug-resistant strain",7.9 ± 1.2 nM
same,IC50,"USA300 LAC; USA300, read-out: Inhibitory activity on staphyloxanthin IC50",7.9 ± 0.2 nM
same,IC50,"USA400 MW2; USA400, read-out: IC50, staphyloxanthin synthesis in drug-resistant strain",1.9 ± 0.5 nM
same,IC50,"USA400 MW2; USA400, read-out: Inhibitory activity on staphyloxanthin IC50",1.9 ± 1.2 nM
same,IC50,"Mu50; read-out: IC50, staphyloxanthin synthesis in drug-resistant strain",0.8 ± 1.4 nM
same,IC50,Mu50; read-out: Inhibitory activity on staphyloxanthin IC50,0.8 ± 0.01 nM
same,MIC80,Microsporum gypseum,32 µg/mL
same,IC50,CYP enzyme subtype 2D6,3200 nM
same,IC50,CYP enzyme subtype 3A4T,> 10000 nM
same,HPLC absorption peaks of carotenoid extract,[1],absorption peaks at the original peak position disappeared again
same,MIC80,Tinea barbae,> 64 µg/mL
same,bioavailability,in vivo,15 to 45%
same,IC50,CYP enzyme subtype 2C8,> 10000 nM
same,IC50,CrtN,373 nM
same,IC50,LRSA56 (CHN),1.8 ± 0.1 nM
same,IC50,XN108 (CHN),0.2 ± 0.04 nM
same,IC50,LRSA205 (CHN),10.5 ± 0.4 nM
same,IC50,NRS100 (USA),1.2 ± 0.1 nM
same,IC50,LRSA202 (CHN),1.6 ± 0.2 nM
same,IC50,NRS70 (JPN),1.7 ± 0.01 nM
same,IC50,HS663 (CHN),0.02 ± 0.01 nM
same,IC50,NF65Y (CHN),1 ± 0.02 nM
same,IC50,NRS108 (FRA),5.6 ± 0.02 nM
same,IC50,NRS271 (SPA),0.4 ± 0.01 nM
same,IC50,CYP enzyme subtype 1A2,5690 nM
same,bacterial survival rate after hydrogen peroxide killing,S. aureus,less than 5%

# — patent publication US10829464B2, “Benzoheterocyclic alkylamine compounds and use thereof” (priority 2016, dated 2020)
